For 20 compounds, Ki results are on record in patent US20250122183A1 (Pfizer Inc., priority 2023, published 2025).

Common to all, as to type: biochemical
Experiment [1] addresses KAT6A Full length enzyme (Homo sapiens (Human), UniProt Q92794). Nature of the experiment: KAT6A assay (SAMDI-MS acetylation of H3 1-21 peptide). To be noted: Morrison equation fit; replicate number in parentheses; read-out: KAT6A Ki (nM) (replicate number).
Experiment [2] concerns the target KAT5 Full length enzyme (Homo sapiens (Human), UniProt Q92993). The experiment in a line: KAT5 assay (SAMDI-MS acetylation of H4 1-21 peptide). To be noted: Morrison equation fit; replicate number in parentheses; read-out: KAT5 Ki (nM) (replicate number).
Experiment [3] has as its target KAT8 Full length enzyme (Homo sapiens (Human), UniProt Q9H7Z6). The experiment in a line: KAT8 assay (SAMDI-MS acetylation of H3 1-21 peptide). To be noted: Morrison equation fit; replicate number in parentheses; read-out: KAT8 Ki (nM) (replicate number).
Experiment [4] deals with KAT7+JADE1+EAF6+ING5 4 protein complex (Homo sapiens (Human), UniProt O95251). The experiment in a line: KAT7 JADE1 assay (SAMDI-MS acetylation of H3 1-21 peptide). To be noted: Morrison equation fit; replicate number in parentheses; read-out: KAT7 JADE1 Ki (nM) (replicate number).

By Ki is commonly meant a dissociation constant, usually derived from enzyme kinetics or from competition with a known ligand.

SMILES strings stand for the structures.

KAT5 Full length enzyme, sequence (Q92993 whole entry): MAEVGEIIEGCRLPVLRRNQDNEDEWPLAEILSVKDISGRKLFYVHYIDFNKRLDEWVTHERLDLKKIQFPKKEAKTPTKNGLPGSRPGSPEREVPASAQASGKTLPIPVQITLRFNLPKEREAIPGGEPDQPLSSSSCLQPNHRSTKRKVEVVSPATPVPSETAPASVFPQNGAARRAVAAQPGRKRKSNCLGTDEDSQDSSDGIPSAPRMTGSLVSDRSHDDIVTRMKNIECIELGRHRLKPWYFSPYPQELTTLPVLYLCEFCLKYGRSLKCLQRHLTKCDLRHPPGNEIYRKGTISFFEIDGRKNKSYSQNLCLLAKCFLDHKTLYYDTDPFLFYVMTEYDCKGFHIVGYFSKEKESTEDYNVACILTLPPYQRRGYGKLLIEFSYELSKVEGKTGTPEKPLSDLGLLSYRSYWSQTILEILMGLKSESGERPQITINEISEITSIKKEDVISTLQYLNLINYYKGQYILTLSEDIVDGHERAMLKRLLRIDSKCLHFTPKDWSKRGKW
KAT6A Full length enzyme, sequence (Q92794 other isoform, or with tags, fused parts or gaps): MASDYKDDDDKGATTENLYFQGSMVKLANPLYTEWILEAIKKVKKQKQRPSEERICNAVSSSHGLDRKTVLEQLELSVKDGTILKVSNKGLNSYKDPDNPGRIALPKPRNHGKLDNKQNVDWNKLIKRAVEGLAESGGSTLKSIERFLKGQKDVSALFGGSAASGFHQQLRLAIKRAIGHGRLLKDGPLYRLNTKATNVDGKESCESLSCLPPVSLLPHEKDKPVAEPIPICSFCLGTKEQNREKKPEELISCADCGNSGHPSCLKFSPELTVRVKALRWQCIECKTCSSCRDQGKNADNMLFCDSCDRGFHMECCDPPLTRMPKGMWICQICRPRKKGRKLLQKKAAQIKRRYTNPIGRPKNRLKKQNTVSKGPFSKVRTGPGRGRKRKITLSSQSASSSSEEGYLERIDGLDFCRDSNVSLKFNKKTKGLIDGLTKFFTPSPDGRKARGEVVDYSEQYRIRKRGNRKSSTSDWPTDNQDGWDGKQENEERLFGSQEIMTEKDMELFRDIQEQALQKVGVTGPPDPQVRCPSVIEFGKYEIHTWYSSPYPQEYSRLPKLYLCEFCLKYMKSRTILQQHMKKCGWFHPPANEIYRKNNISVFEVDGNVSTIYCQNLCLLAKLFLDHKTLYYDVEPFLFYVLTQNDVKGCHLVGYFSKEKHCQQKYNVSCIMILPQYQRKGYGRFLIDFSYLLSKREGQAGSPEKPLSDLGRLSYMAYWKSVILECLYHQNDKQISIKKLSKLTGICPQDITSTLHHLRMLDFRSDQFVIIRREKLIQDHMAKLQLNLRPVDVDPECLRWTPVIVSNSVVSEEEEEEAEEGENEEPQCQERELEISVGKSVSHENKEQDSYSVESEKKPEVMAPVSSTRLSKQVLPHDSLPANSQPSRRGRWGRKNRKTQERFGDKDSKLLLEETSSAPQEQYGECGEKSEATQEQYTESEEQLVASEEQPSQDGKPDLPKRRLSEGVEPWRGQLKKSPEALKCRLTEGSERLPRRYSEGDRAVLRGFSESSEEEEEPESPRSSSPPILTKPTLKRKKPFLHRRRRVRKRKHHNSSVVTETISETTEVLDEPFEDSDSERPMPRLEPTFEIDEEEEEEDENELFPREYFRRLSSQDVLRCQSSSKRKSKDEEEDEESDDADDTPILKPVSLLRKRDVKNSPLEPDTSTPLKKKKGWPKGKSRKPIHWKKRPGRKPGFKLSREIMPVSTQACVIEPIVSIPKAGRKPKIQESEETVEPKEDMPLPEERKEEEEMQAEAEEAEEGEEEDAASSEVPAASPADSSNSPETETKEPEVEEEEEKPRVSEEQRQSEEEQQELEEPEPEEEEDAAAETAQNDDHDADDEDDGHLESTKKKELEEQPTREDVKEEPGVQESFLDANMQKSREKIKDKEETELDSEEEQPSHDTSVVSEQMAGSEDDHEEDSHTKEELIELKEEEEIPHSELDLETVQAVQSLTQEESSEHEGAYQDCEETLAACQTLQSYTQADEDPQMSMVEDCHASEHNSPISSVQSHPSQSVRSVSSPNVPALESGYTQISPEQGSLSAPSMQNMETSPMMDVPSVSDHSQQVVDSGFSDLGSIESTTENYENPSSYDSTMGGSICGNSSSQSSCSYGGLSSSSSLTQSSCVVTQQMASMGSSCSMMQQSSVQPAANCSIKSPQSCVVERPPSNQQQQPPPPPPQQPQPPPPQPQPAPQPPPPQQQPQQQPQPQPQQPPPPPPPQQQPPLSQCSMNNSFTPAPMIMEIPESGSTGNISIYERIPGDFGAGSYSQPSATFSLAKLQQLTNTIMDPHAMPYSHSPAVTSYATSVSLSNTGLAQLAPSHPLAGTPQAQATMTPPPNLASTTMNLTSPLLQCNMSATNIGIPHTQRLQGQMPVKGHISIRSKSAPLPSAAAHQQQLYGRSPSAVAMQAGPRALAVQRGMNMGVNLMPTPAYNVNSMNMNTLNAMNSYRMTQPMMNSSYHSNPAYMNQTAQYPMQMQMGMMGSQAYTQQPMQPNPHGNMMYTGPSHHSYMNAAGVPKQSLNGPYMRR
KAT8 Full length enzyme, sequence (Q9H7Z6 whole entry): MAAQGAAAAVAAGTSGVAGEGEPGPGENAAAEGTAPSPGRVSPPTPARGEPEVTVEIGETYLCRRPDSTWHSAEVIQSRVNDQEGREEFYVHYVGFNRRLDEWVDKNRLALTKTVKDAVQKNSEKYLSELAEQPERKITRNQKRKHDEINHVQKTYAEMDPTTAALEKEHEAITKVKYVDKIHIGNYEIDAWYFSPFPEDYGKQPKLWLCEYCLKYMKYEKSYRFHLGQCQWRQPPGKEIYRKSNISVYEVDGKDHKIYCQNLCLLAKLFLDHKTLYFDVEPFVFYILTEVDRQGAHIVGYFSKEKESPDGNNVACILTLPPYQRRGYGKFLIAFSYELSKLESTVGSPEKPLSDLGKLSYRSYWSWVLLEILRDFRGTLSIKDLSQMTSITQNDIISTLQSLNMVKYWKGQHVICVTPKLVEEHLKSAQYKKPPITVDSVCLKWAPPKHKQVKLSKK

Take `COc1cc2c(NS(=O)(=O)c3c(OC)cc(C4CCN(C)C4)cc3OC)noc2cc1Nc1cc(C2CC2)n[nH]1` (single isomer, unassigned) [Example 148, N-{6-[(3-cyclopropyl-1 H-pyrazol-5-yl)amino]-5-methoxy-1,2-benzoxazol-3-yl}-2,6-dimethoxy-4-(1-methylpyrrolidin-3-yl)benzene-1-sulfonamide]: the Ki in experiment [1] is 1.1 nM; in experiment [2], 78.1 nM; in experiment [3], 575 nM; in experiment [4] it was 3.6 nM.
The like results for `CCc1cc(Nc2cc3onc(NS(=O)(=O)c4ccc(C(F)(F)F)cc4Cl)c3cc2OC)n[nH]1` [Example 124, 2-chloro-N-{6-[(5-ethyl-1H-pyrazol-3-yl)amino]-5-methoxy-1,2-benzoxazol-3-yl}-4-(trifluoromethyl)benzene-1-sulfonamide] were, in that order, 51.3 nM, 4570 nM, 8220 nM and 47.9 nM.
The like results for `CCc1cc(Nc2cc3onc(NS(=O)(=O)c4c(OC)cc(-c5ccn(C)n5)cc4OC)c3cc2OC)[nH]n1` [Example 230, N-{6-[(3-ethyl-1H-pyrazol-5-yl)amino]-5-methoxy-1,2-benzoxazol-3-yl}-2,6-dimethoxy-4-(1-methyl-1 H-pyrazol-3-yl)benzene-1-sulfonamide] were, in that order, 1 nM, 158 nM, 1960 nM and 2.3 nM.
For the compound `COc1cc(F)c(F)cc1S(=O)(=O)Nc1noc2cc(Nc3cc(C4CC4)n[nH]3)c(F)c(OC)c12` [Example 100, N-{6-[(3-cyclopropyl-1H-pyrazol-5-yl)amino]-5-fluoro-4-methoxy-1,2-benzoxazol-3-yl}-4,5-difluoro-2-methoxybenzene-1-sulfonamide], the inhibition constant (Ki) in experiment [1] is 21.4 nM; in experiment [2], 1060 nM; in experiment [3], over 13000 nM; in experiment [4] it was 86.6 nM.
The corresponding values for `COc1cc2c(NS(=O)(=O)c3c(OC)cccc3OC)noc2cc1Nc1cc(C2CCCC2)n[nH]1` [Example 85, N-{6-[(3-cyclopentyl-1H-pyrazol-5-yl)amino]-5-methoxy-1,2-benzoxazol-3-yl}-2,6-dimethoxybenzene-1-sulfonamide] are 4.7 nM, 225 nM, 3380 nM and 33.4 nM.
The corresponding values for `COc1cc2c(NS(=O)(=O)c3c(OC)cccc3OC)noc2cc1Nc1cc2n(n1)CC[C@H]2C` (single isomer, unassigned) [Example 90, 2,6-dimethoxy-N-(5-methoxy-6-{[4-methyl-5,6-dihydro-4H-pyrrolo[1,2-b]pyrazol-2-yl]amino}-1,2-benzoxazol-3-yl)benzene-1-sulfonamide] are 3.4 nM, 251 nM, over 13000 nM and 62.4 nM.
The corresponding values for `COc1cc2c(NS(=O)(=O)c3c(OC)cc(-c4ccncc4)cc3OC)noc2cc1Nc1cc(C2CC2)n[nH]1` [Example 120, N-{6-[(3-cyclopropyl-1H-pyrazol-5-yl)amino]-5-methoxy-1,2-benzoxazol-3-yl}-2,6-dimethoxy-4-(pyridin-4-yl)benzene-1-sulfonamide] are 0.8 nM, 236 nM, 640 nM and 10.8 nM.
`CCc1cc(Nc2cc3onc(NS(=O)(=O)c4ccc5c(c4)OCCO5)c3cc2OC)n[nH]1` [Example 129, N-{6-[(5-ethyl-1 H-pyrazol-3-yl)amino]-5-methoxy-1,2-benzoxazol-3-yl}-2,3-dihydro-1,4-benzodioxine-6-sulfonamide]: the Ki was 56.8 nM in experiment [1], 5630 nM in experiment [2], over 13000 nM in experiment [3] and 244 nM in experiment [4].
`COc1cccc(OC2CC2)c1S(=O)(=O)Nc1noc2cc(Nc3cc(C4CC4)n[nH]3)c(F)c(OC)c12` [Example 80, 2-(cyclopropyloxy)-N-{6-[(5-cyclopropyl-1H-pyrazol-3-yl)amino]-5-fluoro-4-methoxy-1,2-benzoxazol-3-yl}-6-methoxybenzene-1-sulfonamide]: the Ki in experiment [1] amounted to 3.8 nM; in experiment [2], 1450 nM; in experiment [3], 7760 nM; in experiment [4], 32.3 nM.
The corresponding values for `COc1cc2c(NS(=O)(=O)c3c(OC)cccc3OC)noc2cc1Nc1ccccn1` [Example 111, 2,6-dimethoxy-N-{5-methoxy-6-[(pyridin-2-yl)amino]-1,2-benzoxazol-3-yl}benzene-1-sulfonamide] are 0.8 nM, 1130 nM, over 13000 nM and 400 nM.
Consider `COc1cccc(F)c1S(=O)(=O)Nc1noc2cc(Nc3cc(C4CC4)n[nH]3)c(F)c(OC)c12` [Example 81, N-{6-[(3-cyclopropyl-1H-pyrazol-5-yl)amino]-5-fluoro-4-methoxy-1,2-benzoxazol-3-yl}-2-fluoro-6-methoxybenzene-1-sulfonamide], for which the Ki in experiment [1] is 3.5 nM; in experiment [2], 336 nM; in experiment [3], over 13000 nM; in experiment [4] it was 31.6 nM.
`COc1cc2c(NS(=O)(=O)c3c(OC)cccc3OC)noc2cc1Nc1cc([C@@H](C)O)n[nH]1` (single isomer, unassigned) [Example 87, N-(6-{[3-(1-hydroxyethyl)-1H-pyrazol-5-yl]amino}-5-methoxy-1,2-benzoxazol-3-yl)-2,6-dimethoxybenzene-1-sulfonamide]: the Ki in experiment [1] is 23.5 nM; in experiment [2] it was 1800 nM; in experiment [3], over 13000 nM; in experiment [4] it was 1230 nM.
Take `CCn1nc(Nc2cc3onc(NS(=O)(=O)c4c(OC)cccc4OC)c3cc2OC)cc1C` [Example 74, N-{6-[(1-ethyl-5-methyl-1H-pyrazol-3-yl)amino]-5-methoxy-1,2-benzoxazol-3-yl}-2,6-dimethoxybenzene-1-sulfonamide]: the Ki in experiment [1] is 5.2 nM; in experiment [2], 2160 nM; in experiment [3], over 13000 nM; in experiment [4], 483 nM.
With `COc1cc2c(NS(=O)(=O)c3c(OC)cc([C@@H]4CCCO4)cc3OC)noc2cc1Nc1cc(C2CC2)n[nH]1` [Example 140, N-{6-[(3-cyclopropyl-1H-pyrazol-5-yl)amino]-5-methoxy-1,2-benzoxazol-3-yl}-2,6-dimethoxy-4-[(2S)-oxolan-2-yl]benzene-1-sulfonamide], the inhibitory constant (Ki) in experiment [1] is 1.5 nM; in experiment [2], 156 nM; in experiment [3] it was 911 nM; in experiment [4], 11.4 nM.
As for `COc1cc(F)ccc1S(=O)(=O)Nc1noc2cc(Nc3cc(C4CC4)n[nH]3)c(F)c(OC)c12` [Example 97, N-{6-[(3-cyclopropyl-1H-pyrazol-5-yl)amino]-5-fluoro-4-methoxy-1,2-benzoxazol-3-yl}-4-fluoro-2-methoxybenzene-1-sulfonamide], the inhibition constant Ki is 9.8 nM in experiment [1], 795 nM in experiment [2], over 13000 nM in experiment [3] and 57.7 nM in experiment [4].
The corresponding values for `CCc1cc(Nc2cc3onc(NS(=O)(=O)c4cccc(-c5ccc(OC)cc5)c4)c3cc2OC)[nH]n1` [Example 137, N-{6-[(3-ethyl-1 H-pyrazol-5-yl)amino]-5-methoxy-1,2-benzoxazol-3-yl}-4′-methoxy[1,1′-biphenyl]-3-sulfonamide] are 12.9 nM, 1650 nM, over 13000 nM and 9.7 nM.
The corresponding values for `COc1cc2c(NS(=O)(=O)c3c(OC)cc(C(C)N4CC(F)C4)cc3OC)noc2cc1Nc1cc(C2CC2)[nH]n1` (single isomer, unassigned) [Example 209, N-{6-[(5-cyclopropyl-1 H-pyrazol-3-yl)amino]-5-methoxy-1,2-benzoxazol-3-yl}-4-[1-(3-fluoroazetidin-1-yl)ethyl]-2,6-dimethoxybenzene-1-sulfonamide] are 1.4 nM, 106 nM, 2400 nM and 7.7 nM.
The corresponding values for `CCc1cc(Nc2cc3onc(NS(=O)(=O)c4cccc(Oc5ccccc5C)c4)c3cc2OC)n[nH]1` [Example 125, N-{6-[(5-ethyl-1 H-pyrazol-3-yl)amino]-5-methoxy-1,2-benzoxazol-3-yl}-3-(2-methylphenoxy)benzene-1-sulfonamide] are 48.6 nM, 5090 nM, over 13000 nM and 180 nM.
Take `COc1cc2c(NS(=O)(=O)c3c(OC)cccc3OC)noc2cc1Nc1cc(C(C)CCO)[nH]n1` (centres unmarked) [Example 88, N-(6-{[5-(4-hydroxybutan-2-yl)-1H-pyrazol-3-yl]amino}-5-methoxy-1,2-benzoxazol-3-yl)-2,6-dimethoxybenzene-1-sulfonamide]: the inhibitory constant (Ki) was 27 nM in experiment [1], 6020 nM in experiment [2], over 13000 nM in experiment [3] and 378 nM in experiment [4].
The corresponding values for `COc1cc2c(NS(=O)(=O)c3c(OC)cccc3OC)noc2cc1Nc1cc2n(n1)CC[C@@H]2C` (single isomer, unassigned) [Example 89, 2,6-dimethoxy-N-(5-methoxy-6-{[4-methyl-5,6-dihydro-4H-pyrrolo[1,2-b]pyrazol-2-yl]amino}-1,2-benzoxazol-3-yl)benzene-1-sulfonamide] are 3 nM, 168 nM, over 12200 nM and 39.3 nM.
